Key:
Assay type in all cases: cell-based, human
OVCAR-5 = experiment: NCI growth inhibition, OVCAR-5; settings: OVCAR-5 (Ovarian)
SN12C = experiment: NCI growth inhibition, SN12C; settings: SN12C (Renal)
HCT-15 = experiment: NCI growth inhibition, HCT-15; settings: HCT-15 (Colon)
M14 = experiment: NCI growth inhibition, M14; settings: M14 (Melanoma)
SK-MEL-2 = experiment: NCI growth inhibition, SK-MEL-2; settings: SK-MEL-2 (Melanoma)
SK-OV-3 = experiment: NCI growth inhibition, SK-OV-3; settings: SK-OV-3 (Ovarian)
HCC-2998 = experiment: NCI growth inhibition, HCC-2998; settings: HCC-2998 (Colon)
TK-10 = experiment: NCI growth inhibition, TK-10; settings: TK-10 (Renal)
SK-MEL-28 = experiment: NCI growth inhibition, SK-MEL-28; settings: SK-MEL-28 (Melanoma)
COLO 205 = experiment: NCI growth inhibition, COLO 205; settings: COLO 205 (Colon)
BT-549 = experiment: NCI growth inhibition, BT-549; settings: BT-549 (Breast)
NCI-H522 = experiment: NCI growth inhibition, NCI-H522; settings: NCI-H522 (Non-Small Cell Lung)
PC-3 = experiment: NCI growth inhibition, PC-3; settings: PC-3 (Prostate)
RXF 393 = experiment: NCI growth inhibition, RXF 393; settings: RXF 393 (Renal)
786-0 = experiment: NCI growth inhibition, 786-0; settings: 786-0 (Renal)
EKVX = experiment: NCI growth inhibition, EKVX; settings: EKVX (Non-Small Cell Lung)
MCF7 = experiment: NCI growth inhibition, MCF7; settings: MCF7 (Breast)
LOX IMVI = experiment: NCI growth inhibition, LOX IMVI; settings: LOX IMVI (Melanoma)
HCT-116 = experiment: NCI growth inhibition, HCT-116; settings: HCT-116 (Colon)
IGROV1 = experiment: NCI growth inhibition, IGROV1; settings: IGROV1 (Ovarian)
MDA-MB-435 = experiment: NCI growth inhibition, MDA-MB-435; settings: MDA-MB-435 (Breast)
MOLT-4 = experiment: NCI growth inhibition, MOLT-4; settings: MOLT-4 (Leukemia)
OVCAR-3 = experiment: NCI growth inhibition, OVCAR-3; settings: OVCAR-3 (Ovarian)
UACC-62 = experiment: NCI growth inhibition, UACC-62; settings: UACC-62 (Melanoma)
ACHN = experiment: NCI growth inhibition, ACHN; settings: ACHN (Renal)
UO-31 = experiment: NCI growth inhibition, UO-31; settings: UO-31 (Renal)
NCI-H460 = experiment: NCI growth inhibition, NCI-H460; settings: NCI-H460 (Non-Small Cell Lung)
HT29 = experiment: NCI growth inhibition, HT29; settings: HT29 (Colon)
MALME-3M = experiment: NCI growth inhibition, MALME-3M; settings: MALME-3M (Melanoma)
SF-268 = experiment: NCI growth inhibition, SF-268; settings: SF-268 (CNS)
NCI-H23 = experiment: NCI growth inhibition, NCI-H23; settings: NCI-H23 (Non-Small Cell Lung)
A549/ATCC = experiment: NCI growth inhibition, A549/ATCC; settings: A549/ATCC (Non-Small Cell Lung)
HOP-92 = experiment: NCI growth inhibition, HOP-92; settings: HOP-92 (Non-Small Cell Lung)
NCI/ADR-RES = experiment: NCI growth inhibition, NCI/ADR-RES; settings: NCI/ADR-RES (Breast)
DU-145 = experiment: NCI growth inhibition, DU-145; settings: DU-145 (Prostate)
K-562 = experiment: NCI growth inhibition, K-562; settings: K-562 (Leukemia)
U251 = experiment: NCI growth inhibition, U251; settings: U251 (CNS)
SNB-19 = experiment: NCI growth inhibition, SNB-19; settings: SNB-19 (CNS)
MDA-N = experiment: NCI growth inhibition, MDA-N; settings: MDA-N (Breast)
CAKI-1 = experiment: NCI growth inhibition, CAKI-1; settings: CAKI-1 (Renal)
SNB-75 = experiment: NCI growth inhibition, SNB-75; settings: SNB-75 (CNS)
SF-295 = experiment: NCI growth inhibition, SF-295; settings: SF-295 (CNS)
CCRF-CEM = experiment: NCI growth inhibition, CCRF-CEM; settings: CCRF-CEM (Leukemia)
UACC-257 = experiment: NCI growth inhibition, UACC-257; settings: UACC-257 (Melanoma)
HS 578T = experiment: NCI growth inhibition, HS 578T; settings: HS 578T (Breast)

CC(=O)N[C@H]1CC[C@H](Nc2nc(NCc3ccc(-c4ccccc4)nc3)c3ncn(C(C)C)c3n2)CC1 [Compound 87]
GI50 (OVCAR-5): 51 nM
GI50 (SN12C): < 10 nM
GI50 (HCT-15): 66 nM
GI50 (M14): < 10 nM
GI50 (SK-MEL-2): 56 nM
GI50 (SK-OV-3): 350 nM
GI50 (HCC-2998): < 10 nM
GI50 (TK-10): 29 nM
GI50 (SK-MEL-28): < 10 nM
GI50 (COLO 205): < 10 nM
GI50 (BT-549): 20 nM
GI50 (NCI-H522): < 10 nM
GI50 (PC-3): 18 nM
GI50 (RXF 393): 11 nM
GI50 (786-0): 47 nM
GI50 (EKVX): 81 nM
GI50 (MCF7): 40 nM
GI50 (LOX IMVI): 27 nM
GI50 (HCT-116): 37 nM
GI50 (IGROV1): 52 nM
GI50 (MDA-MB-435): < 10 nM
GI50 (MOLT-4): 20 nM
GI50 (OVCAR-3): 50 nM
GI50 (UACC-62): 45 nM
GI50 (ACHN): 190 nM
GI50 (UO-31): 16 nM
GI50 (NCI-H460): 220 nM
GI50 (HT29): < 10 nM
GI50 (MALME-3M): 24 nM
GI50 (SF-268): < 10 nM
GI50 (NCI-H23): 22 nM
GI50 (A549/ATCC): < 10 nM
GI50 (HOP-92): 88 nM
GI50 (NCI/ADR-RES): 280 nM
GI50 (DU-145): 220 nM
GI50 (K-562): 24 nM
GI50 (U251): 28 nM
GI50 (SNB-19): 38 nM
GI50 (MDA-N): 14 nM
GI50 (CAKI-1): 64 nM
GI50 (SNB-75): 12 nM
GI50 (SF-295): 47 nM
GI50 (CCRF-CEM): < 10 nM
GI50 (UACC-257): 17 nM
GI50 (HS 578T): < 10 nM
